In ChEMBL document CHEMBL6134887, “Linker and Head-Group Exploration of Anti-MRSA Triaromatic Pleuromutilins” (J Med Chem, 2025):
Converted amounts (≈) assume the structure as drawn. The source made the active and inactive calls. No cut-off for these calls is given here.

Tests used:
Staphylococcus aureus [1] = test: Antibacterial activity against methicillin resistant Staphylococcus aureus USA300 FPR3757 assessed as inhibition of bacterial growth incubated for 20 to 24 hrs by microbroth serial dilution method; assay type: functional; settings: time 20-24 hrs, read-out: MIC100
Enterococcus faecium [2] = test: Antibacterial activity against vancomycin, ampicillin and ciprofloxacin resistant Enterococcus faecium clinical isolate 1 assessed as inhibition of bacterial growth incubated for 20 to 24 hrs by microbroth serial dilution method; assay type: functional; settings: time 20-24 hrs, read-out: MIC100
Enterococcus faecium [3] = test: Antibacterial activity against vancomycin, ampicillin and ciprofloxacin resistant Enterococcus faecium clinical isolate 5 assessed as inhibition of bacterial growth incubated for 20 to 24 hrs by microbroth serial dilution method; assay type: functional; settings: time 20-24 hrs, read-out: MIC100
Staphylococcus aureus [4] = test: Antibacterial activity against methicillin susceptible Staphylococcus aureus ATCC 25923 assessed as inhibition of bacterial growth incubated for 20 to 24 hrs by microbroth serial dilution method; assay type: functional; settings: time 20-24 hrs, read-out: MIC100
Staphylococcus aureus [5] = test: Antibacterial activity against methicillin susceptible Staphylococcus aureus ATCC 29213 assessed as inhibition of bacterial growth incubated for 20 to 24 hrs by microbroth serial dilution method; assay type: functional; settings: time 20-24 hrs, read-out: MIC100
Staphylococcus aureus [6] = test: Antibacterial activity against methicillin resistant Staphylococcus aureus clinical isolate 55508 assessed as inhibition of bacterial growth incubated for 20 to 24 hrs by microbroth serial dilution method; assay type: functional; settings: time 20-24 hrs, read-out: MIC100
Staphylococcus aureus [7] = test: Antibacterial activity against methicillin resistant Staphylococcus aureus clinical isolate 52518 assessed as inhibition of bacterial growth incubated for 20 to 24 hrs by microbroth serial dilution method; assay type: functional; settings: time 20-24 hrs, read-out: MIC100
Staphylococcus aureus [8] = test: Antibacterial activity against mupirocin resistant Staphylococcus aureus 4828 assessed as inhibition of bacterial growth incubated for 20 to 24 hrs by microbroth serial dilution method; assay type: functional; settings: time 20-24 hrs, read-out: MIC100
Staphylococcus aureus [9] = test: Antibacterial activity against methicillin resistant Staphylococcus aureus clinical isolate 933010 assessed as inhibition of bacterial growth incubated for 20 to 24 hrs by microbroth serial dilution method; assay type: functional; settings: time 20-24 hrs, read-out: MIC100
[10] = Metabolic stability in mouse liver microsomes assessed as half-life at 1 uM measured up to 60 mins by LC-MS/MS analysis; assay type: ADME, Microsome
[11] = Metabolic stability in mouse liver assessed as intrinsic clearance at 1 uM measured up to 60 mins by LC-MS/MS analysis; assay type: ADME, tissue-based; settings: read-out: CLH
[12] = Metabolic stability in human liver microsomes assessed as half-life at 1 uM measured up to 30 mins by LC-MS/MS analysis; assay type: ADME, Microsome
[13] = Metabolic stability in human liver assessed as intrinsic clearance at 1 uM measured up to 30 mins by LC-MS/MS analysis; assay type: ADME, tissue-based; settings: read-out: CLH
Caco-2 = test: Cytotoxicity against human Caco-2 cells assessed as reduction in cell viability at 1 to 10 uM measured after 1 to 8 days by Celltiter-Glo reagent based assay; assay type: toxicity; settings: caco-2, 10 µM, dose lower 1 µM, time lower 1 day, dose upper 10 µM, time upper 8 day
DU-145 = test: Cytotoxicity against human DU-145 cells assessed as reduction in cell viability at 1 to 10 uM measured after 3 hrs by Celltiter-Glo reagent based assay; assay type: toxicity; settings: du-145, 3 h, dose 1-10 µM
MDCK-MDR1 = test: Cytotoxicity against MDCKII-MDR1 cells assessed as reduction in cell viability at 1 to 10 uM measured after 3 hrs by Celltiter-Glo reagent based assay; assay type: toxicity, Canis lupus familiaris; settings: dog, mdck-mdr1, 3 h, dose 1-10 µM
Staphylococcus aureus [14] = test: Antibacterial activity against Staphylococcus aureus ATCC 29213 infected in skin infection female BALB/cJRj mouse model assessed as reduction in bacterial load in wound at 2 % administered twice daily at 6 hrs interval as cream formulation and measured on day 1; assay type: functional; settings: route top, time 1 day
Staphylococcus aureus [15] = test: Antibacterial activity against Staphylococcus aureus ATCC 29213 infected in skin infection female BALB/cJRj mouse model assessed as reduction in bacterial load in wound at 2 % administered twice daily at 6 hrs interval as cream formulation and measured on day 4 (reference value: 5.3 x 10^3 CFU/ml); assay type: functional; settings: route top, time 4 day
Staphylococcus aureus [16] = test: Antibacterial activity against Staphylococcus aureus ATCC 29213 infected in skin infection female BALB/cJRj mouse model assessed as reduction in bacterial load in wound at 2 % administered twice daily at 6 hrs interval as cream formulation and measured on day 5; assay type: functional; settings: route top
[17] = Toxicity in female BALB/cJRj mouse model of skin infection infected with Staphylococcus aureus ATCC 29213 assessed as skin toxicity at 2 % administered twice daily at 6 hrs interval as cream formulation and measured on day 4; settings: in vivo, topical_or_ocular, 96 h, route top, time 4 day
[18] = Toxicity in female BALB/cJRj mouse model of skin infection infected with Staphylococcus aureus ATCC 29213 assessed as skin irritation at 2 % administered twice daily at 6 hrs interval as cream formulation and measured on day 4; settings: in vivo, topical_or_ocular, 96 h, route top, time 4 day
Streptococcus pneumoniae = test: Antibacterial activity against Streptococcus pneumoniae assessed as inhibition of bacterial growth incubated for 20 to 24 hrs by microbroth serial dilution method; assay type: functional; settings: time 20-24 hrs, read-out: MIC100
Enterococcus faecalis = test: Antibacterial activity against Enterococcus faecalis assessed as inhibition of bacterial growth incubated for 20 to 24 hrs by microbroth serial dilution method; assay type: functional; settings: time 20-24 hrs, read-out: MIC100

Structure (SMILES) | MIC (Staphylococcus aureus [1]) | MIC (Enterococcus faecium [2]) | MIC (Enterococcus faecium [3]) | MIC (Staphylococcus aureus [4]) | MIC (Staphylococcus aureus [5]) | MIC (Staphylococcus aureus [6]) | MIC (Staphylococcus aureus [7]) | MIC (Staphylococcus aureus [8]) | MIC (Staphylococcus aureus [9]) | half-life at 1 µM [10] | CLint scaled at 1 µM [11] | half-life at 1 µM [12] | CLint scaled at 1 µM [13] | Activity (Caco-2) | Activity (DU-145) | Activity (MDCK-MDR1) | Activity (Staphylococcus aureus [14]) | Activity (Staphylococcus aureus [15]) | also measured
C=C[C@]1(C)C[C@@H](OC(=O)Cn2cc(-c3ccc(Cn4ccc5c(N)ncnc54)nc3)nn2)[C@]2(C)[C@H](C)CC[C@]3(CCC(=O)[C@H]32)[C@@H](C)[C@@H]1O | 0.015 µg/mL (≈ 0.023 µM) | 0.015 µg/mL (≈ 0.023 µM) | 0.03 µg/mL (≈ 0.046 µM) | 0.06 µg/mL (≈ 0.0919 µM) | 0.015 µg/mL (≈ 0.023 µM) | < 0.015 µg/mL | < 0.015 µg/mL | < 0.015 µg/mL | 0.03 µg/mL (≈ 0.046 µM) | 0.58 min | 566 L/h/kg | 1.9 min | 199 L/h/kg | Non-toxic | Non-toxic | Non-toxic | 5.4 10^5CFU/ml | 2.5 log10CFU/ml | Activity (Staphylococcus aureus [16]; time 5 day): 1.5 10^7CFU/ml; Activity [17]: Non-toxic; Activity [18]: Non-toxic
C=C[C@]1(C)C[C@@H](OC(=O)Cn2cc(-c3cncc(NC(=O)c4cnc(OC)cn4)c3)nn2)[C@]2(C)[C@H](C)CC[C@]3(CCC(=O)[C@H]32)[C@@H](C)[C@@H]1O | 0.06 µg/mL (≈ 0.0912 µM) | 0.06 µg/mL (≈ 0.0912 µM) | 0.06 µg/mL (≈ 0.0912 µM) | 0.12 µg/mL (≈ 0.182 µM) | 0.06 µg/mL (≈ 0.0912 µM) | 0.12 µg/mL (≈ 0.182 µM) | 0.06 µg/mL (≈ 0.0912 µM) | 0.12 µg/mL (≈ 0.182 µM) | 0.12 µg/mL (≈ 0.182 µM) | 0.53 min | > 600 L/h/kg | 5.7 min | 65.4 L/h/kg | Non-toxic | Non-toxic | Non-toxic | – | – | MIC (Streptococcus pneumoniae): 1 µg/mL (≈ 1.52 µM); MIC (Enterococcus faecalis): 0.12 µg/mL (≈ 0.182 µM)
CC(=O)O[C@H]1C[C@@]2(C)[C@@H](C[C@@H](O)[C@H]3[C@@]4(C)CC[C@@H](O)[C@@H](C)[C@@H]4CC[C@@]32C)/C1=C(\CCC=C(C)C)C(=O)O [FUSIDIC ACID] | 0.25 µg/mL (≈ 0.484 µM) | – | – | 0.12 µg/mL (≈ 0.232 µM) | 0.015 µg/mL (≈ 0.029 µM) | – | – | – | – | – | – | – | – | – | – | – | 4.8 10^4CFU/ml | 2.5 log10CFU/ml | Activity (Staphylococcus aureus [16]; time 5.0 day): Active
